We go through 15 molecules from US9040019B2, “Methods of detecting myelin basic protein” (General Electric Company, priority 2012, dated 2015).

The structures appear in SMILES notation.

Data set [1] relates to sciatic nerve tissue sections. Kind of data set: Ex vivo binding of nerve labelling agents to sciatic nerve tissue sections (fluorescence microscopy). Details: species or system male Sprague Dawley (SD) rats. The following applies: 10 μM or 20 μM agent, 1 hour incubation, compared to control tissue without agent. As to the method:
For ex vivo histological evaluation, various nerves including sciatic, femoral and trigeminal were harvested from male Sprague Dawley (SD) rats. Tissue was fixed by perfusion and/or post-fixed with formalin. Nerves were then flash-frozen using methanol and dry ice in OCT media. In some cases, polyvinylidene fluoride membranes were used to help keep the nerves vertical in the OCT media. Thin sections (5-10 microns) were sliced on a Leica microtome and stored in a −80° C. freezer prior to staining with antibodies or fluorescent dyes.
Nerve sections were prepared as described above. At the time of staining the slides were removed from −80° C. and allowed to come to room temperature. The nerves were fixed in neutral buffered formalin (10%) for 5 min after which the slides were rinsed in 1×PBS (3×, 5 min/each). 10 μM, or 20 μM each Formula II, Formula III, Formula IV, Formula V, or Formula VI was added onto the tissue in a formulation containing 10% Cremophor EL and 60% rat serum made in 1×PBS. The slides were incubated for 1 hour in a dark, moist/humid chamber at room temperature after which they were washed 3 times for 5 min/each in 1×PBS, cover-slipped, and imaged using the appropriate filter cube on a Zeiss Axioimager at 200× magnification.

Data set [2] in a line: Measurement of optical properties of the agents (absorbance and fluorescence emission). The format is physicochemical. The settings on record: in DMSO; for Absorbance Maximum / Emission Maximum / Stoke shift: nerve labeling agents; for Abs (maximal absorbance wavelength) / Em (maximal fluorescence emission wavelength): compounds lacking nerve binding. As to the method: The flurophores were dissolved in dimethylsulfoxide (DMSO) to make a 10 mM stock solution. An aliquot was taken to prepare a 10-100 μM flurophore solution in methanol, water, or DMSO. Optical measurements from the three solvents were taken. Absorbance spectra were measured using a PerkinElmer Lambda™ 20 UV/VIS spectrometer (PerkinElmer, Waltham, Mass.). Emission spectra were generated using a PTI steady state fluorimeter (Photon Technology International, Birmingham, N.H.). The stoke shift for nerve labeling agents on Table 3 are greater than 100 nm.

The test system of data set [3] is nerve, muscle, and adipose tissue. The data set can be described thus: Kinetics of clearance, tissue fluorescence after IV injection. Type of data set: in vivo, adult male CD-1 mice. The following applies: 3.33 mg/kg IV; 0.5, 1, 2 and 3 hours post injection. The procedure: (§1) All procedures were approved by the Institutional Animal Care and Use Committee (IACUC) at GE Global Research. Male CD-1 mice ranging in body weight from 25-30 g and SD rats (250-350 g) were purchased from Charles River Laboratories (Wilmington, Mass.) and housed at 22-23° C. on a 12-hour light/dark cycle. On the day of the experiment, rodents were anesthetized using 2-4% isofluorane and given a single tail vein injection of either imaging agent in formulation or formulation excipients alone. […]
(§2) In vivo imaging consisted of detailed fluorescence emission characterization and surgical imaging using a Zeiss Lumar™ imaging system (Carl Zeiss Inc. Thornwood, N.Y.) with coupled multispectral imaging camera (Nuance camera; CRI, Woburn, Mass.) or AxioCam™ (Carl Zeiss Inc. Thornwood, N.Y.). […] A variety of excitation filters were used to characterize the in vivo fluorescence of these agents. […] Fluorescence emission data was then recorded at wavelengths ranging from 420 to 720 nm at 10 nm steps using the attached CRI-Nuance™ camera (Cambridge Research and Instrumentation Inc., Wobur, Mass.) or using a 500 nm-long pass filter on the AxioCam. Fluorescence images were collected using exposure times of 5 seconds in both control and agent injected animals for normalization. […]

Another data set deals with nerves. The data set can be described thus: Pre-clinical fluorescence in vivo imaging of nerves in a large rodent model. Details: species or system Sprague Dawley (SD) rat. The following applies: 0.5 hours post injection. The procedure: as §1, §2

As for `COc1cc(/C=C/C2=CC(=C(C#N)C#N)C=C(C)O2)ccc1N` [VI], the “Ex vivo binding to sciatic nerve tissue sections (fluorescence signal)” value (“Ex vivo binding” for short) in data set [1] is reported as “fluorescence signal is evident”.
For the molecule `CC1=CC(=C(C#N)C#N)C=C(/C=C/c2ccc(NCCO)cc2)O1` [Formula V], in data set [2], the “Absorbance Maximum” value amounted to 484 nm, the “Emission Maximum” value is recorded as 618 nm and the Stoke shift stood at 134 nm.
With `CC1=CC(=C(C#N)C#N)C=C(/C=C/c2ccc(N(CCO)CCO)cc2)O1` [III], in data set [1], the “Ex vivo binding” value is reported as “fluorescence signal is evident”.
Turning to `CC1(C)OC(=O)C(C#N)=C1/C=C/c1ccc(N)cc1` [A], in data set [2], the “Abs (maximal absorbance wavelength)” value came out at 480 nm and the “Em (maximal fluorescence emission wavelength)” value is reported as 562 nm.
The corresponding values for `CC1(C)OC(=C(C#N)C#N)C(C#N)=C1/C=C/c1ccc(NCCO)cc1` [E] are 590 nm and 636 nm.
For `COc1cc(/C=C/C2=CC(=C(C#N)C#N)C=C(C)O2)ccc1NCc1ccc(N)cc1` [Formula IV], in data set [2], the “Absorbance Maximum” value is 492 nm, the “Emission Maximum” value was 642 nm and the Stoke shift was 150 nm.
In the case of `CC1(C)OC(=O)C(C#N)=C1/C=C/c1ccc(NCCO)cc1` [B], in data set [2], the “Abs (maximal absorbance wavelength)” value is recorded as 494 nm and the “Em (maximal fluorescence emission wavelength)” value was found to be 578 nm.
For `CC1(C)OC(=O)C(C#N)=C1/C=C/c1ccc(N(CCO)CCO)cc1` [C], in data set [2], the “Abs (maximal absorbance wavelength)” value was determined as 505 nm and the “Em (maximal fluorescence emission wavelength)” value is 591 nm.
Consider `CC1=CC(=C(C#N)C#N)C=C(/C=C/c2ccc(NCCO)cc2)O1` [V], for which, in data set [1], the “Ex vivo binding” value was “fluorescence signal is evident”.
For the molecule `CC1=CC(=C(C#N)C#N)C=C(/C=C/c2ccc(N(CCO)CCO)cc2)O1` [Formula III], in data set [2], the “Absorbance Maximum” value is reported as 491 nm, the “Emission Maximum” value is on record as 623 nm and the Stoke shift was 132 nm.
Take `CC1(C)OC(=C(C#N)C#N)C(C#N)=C1/C=C/c1ccc(N)cc1` [D]: in data set [2], the “Abs (maximal absorbance wavelength)” value is given as 574 nm and the “Em (maximal fluorescence emission wavelength)” value was found to be 621 nm.
Take `CC1(C)OC(=C(C#N)C#N)C(C#N)=C1/C=C/c1ccc(N(CCO)CCO)cc1` [F]: in data set [2], the “Abs (maximal absorbance wavelength)” value turned out to be 596 nm and the “Em (maximal fluorescence emission wavelength)” value was 656 nm.
Regarding `COc1cc(/C=C/C2=CC(=C(C#N)C#N)C=C(C)O2)ccc1NCc1ccc(N)cc1` [IV], the “Ex vivo binding” value in data set [1] is listed as “fluorescence signal is evident”.
Regarding `CC1=CC(=C(C#N)C#N)C=C(/C=C/c2ccc(N)cc2)O1` [Formula II], in data set [2], the “Absorbance Maximum” value is 478 nm, the “Emission Maximum” value amounted to 607 nm and the Stoke shift came to 129 nm. The “Ex vivo binding” value in data set [1] is recorded as “fluorescence signal is evident”. The “Maximum tissue-specific fluorescence intensity over time post injection (nerve, muscle, adipose tissue)” value in data set [3] is “decreases with increasing time post injection”. Also, the “Nerve visibility in fluorescence imaging” value with nerves (8.33 mg/kg IV) is recorded as “Visible nerves present”. In the data set with nerves (16.67 mg/kg IV), the “Nerve visibility in fluorescence imaging” value is recorded as “Visible nerves present”.
Turning to `COc1cc(/C=C/C2=CC(=C(C#N)C#N)C=C(C)O2)ccc1N` [Formula VI], in data set [2], the “Absorbance Maximum” value is recorded as 478 nm, the “Emission Maximum” value is on record as 631 nm and the Stoke shift was 153 nm.
